Source: patent publication US12404232B2, “Compounds and compositions for intracellular delivery of therapeutic agents” (ModernaTX, Inc., priority 2015, dated 2025)

Columns and labels:
[1] = Encapsulation of RNA by the nanoparticle composition (QUANT-IT RIBOGREEN RNA assay); type: physicochemical
From the text: The efficiency of encapsulation of a therapeutic and/or prophylactic describes the amount of therapeutic and/or prophylactic that is encapsulated or otherwise associated with a nanoparticle composition after preparation, relative to the initial amount provided. The encapsulation efficiency is desirably high (e.g., close to 100%). The encapsulation efficiency may be measured, for example, by comparing the amount of therapeutic and/or prophylactic in a solution containing the nanoparticle composition before and after breaking up the nanoparticle composition with one or more organic solvents or detergents. Fluorescence may be used to measure the amount of free therapeutic and/or prophylactic (e.g., RNA) in a solution. For the nanoparticle compositions described herein, the encapsulation efficiency of a therapeutic and/or prophylactic may be at least 50%, for example 50%, 55%, 60%, 65%, 70%, 75%, 80%, 85%, 90%, 91%, 92%, 93%, 94%, 95%, 96%, 97%, 98%, 99%, or 100%. In some embodiments, the encapsulation efficiency may be at least 80%. In certain embodiments, the encapsulation efficiency may be at least 90%.
For nanoparticle compositions including an RNA, a QUANT-IT™ RIBOGREEN® RNA assay (Invitrogen Corporation Carlsbad, CA) can be used to evaluate the encapsulation of an RNA by the nanoparticle composition. The samples are diluted to a concentration of approximately […] in a TE buffer solution (10 mM Tris-HCl, 1 mM EDTA, pH 7.5). 50 μL of the diluted samples are transferred to a polystyrene 96 well plate and either 50 μL of TE buffer or 50 μL of a 2% Triton X-100 solution is added to the wells. The plate is incubated at a temperature of 37° C. for 15 minutes. The RIBOGREEN® reagent is diluted 1:100 in TE buffer, and 100 μL of this solution is added to each well. The fluorescence intensity can be measured using a fluorescence plate reader (Wallac Victor 1420 Multilablel Counter; Perkin Elmer, Waltham, MA) at an excitation wavelength of, for example, about 480 nm and an emission wavelength of, for example, about 520 nm. The fluorescence values of the reagent blank are subtracted from that of each of the samples and the percentage of free RNA is determined by dividing the fluorescence intensity of the intact sample (without addition of Triton X-100) by the fluorescence value of the disrupted sample (caused by the addition of Triton X-100).
Initial studies were performed to compare the delivery efficiency of nanoparticle compositions including various compounds according to Formula (I), (IA), (II), (IIa), (IIb), (IIc), (IId) or (IIe). The cationic lipid MC3 is a current standard in the art. Accordingly, the standard MC3 formulation including about 50 mol % MC3, about 10 mol % DSPC, about 38.5 mol % cholesterol, and about 1.5 mol % PEG-DMG was used as a basis for this study. Nanoparticle compositions including DSPC as a phospholipid, cholesterol as a structural lipid, PEG-DMG as a PEG lipid, an RNA, and a compound according to Formula (I), (IA), (II), (IIa), (IIb), (IIc), (IId) or (IIe) selected from Compounds 1-159, 168-170, and 173-175 were prepared according to or via methods similar to those described in Examples 1 and 2. The ratios of the lipids were 50:10:38.5:1.5 mol % for the lipid according to Formula (I), (IA), (II), (IIa), (IIb), (IIc), (IId) or (IIe):DSPC:cholesterol:PEG-DMG. The RNA used was an mRNA encoding G5 luciferase (Luc) or G5 hEPO. Tables 1A-1B summarize the content and characteristics of the formulations. […]

[2] = system: rat; experiment: Clinical chemistry and hematology in rat after intravenous administration; type: in vivo; parameters: unit not given here; details: 2 mpk, 48 h post dose
Experimental: Sample formulations of nanoparticle compositions including different lipids were administered intravenously to rat at a dose of 2 mpk. The expression of various clinical markers was evaluated at 48 h post dose and compared to that induced by administration of MC3 formulations or phosphate buffered saline (PBS).
Table 19 summarizes the hEPO expression, IP-10 induction, liver and spleen levels, and alanine aminotransferase (ALT) and aspartate aminotransferase (AST) measured upon intravenous administration of formulations including Compounds 48, 49, and 50 to rat at 0.2 and 2 mpk and hEPO mRNA. hEPO concentrations were measured 6 hours after administration, while cytokine induction and liver and spleen levels were measured 48 hours after administration. hEPO and IP-10 concentrations are presented in pg/ml, while liver levels are provided in ng/g. ALT and AST levels are presented in international units.

[3] = system: Cynomolgus monkeys; experiment: Anti-HA (anti-hemagglutinin) antibody expression in Cynomolgus monkeys after intravenous infusion; type: in vivo; details: i.v. infusion 60 minutes
Experimental: Results of hEPO expression studies were validated using a standard MC3 formulation and a nanoparticle composition containing Compound 18 including an mRNA encoding an anti-hemagglutinin (anti-HA) antibody. Cynomolgus monkeys were administered a single dose of 0.1 mpk or 0.3 mpk of a nanoparticle composition containing Compound 18 (see Table 33; prepared according to Example 2) including an mRNA encoding anti-HA antibody via intravenous infusion for 60 minutes.

[4] = system: mice; experiment: Cytokine induction (IL-6, IP-10) in mice after intravenous administration; type: in vivo; parameters: IL-6 / IP-10: unit not given here; details: 0.5 mpk; for IL-6 / IP-10: 6 hours; for Cytokine expression (pg/ml) IL-6 (6 h) / Cytokine expression (pg/ml) IP-10 (6 h): hEPO mRNA
Procedure, shortened: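 Nanoparticle compositions given intravenously to mice at 0.5 mpk; serum cytokine concentrations measured at 6 hours, with MC3 formulation and PBS as comparators.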

[5] = hEPO mRNA, (50:10:38.5:1.5) (Table 10)

SMILES	EE (%) ([1]; formulated with hEPO mRNA (Table 1B))	EE (%) [1, 5] [%]	EE (%) ([1]; nanoparticle composition 50:10:38.5:1.5 mol % (Table 1A))	Alanine aminotransferase (Concentration) [2]	Aspartate aminotransferase (Concentration) [2]	Lymphocytes (Concentration) [2]	Monocytes (Concentration) [2]	Neutrophils (Concentration) [2]	AUC ([3]; dose 0.1 mpk) [µg·h/mL]	AUC ([3]; dose 0.3 mpk) [µg·h/mL]	IL-6 [4]	IP-10 [4]	Cytokine expression (pg/ml) IL-6 (6 h) [4] [pg/mL]	Cytokine expression (pg/ml) IP-10 (6 h) [4] [pg/mL]	EE (%) ([1]; mRNA encoding anti-HA antibody (Table 33))
CCCCCC=CCC=CCCCCCCCCC(CCCCCCCCC=CCC=CCCCCC)OC(=O)CCCN(C)C (stereo not shown) [MC3, heptatriaconta-6,9,28,31-tetraen-19-yl 4-(dimethylamino)butanoate, reference compound]	99.01	97.22	97.3	339	325	19976	1429	4962.5	77.05	235.7	124.42	504.90	19.85	117.94	–
CCCCCCCCCOC(=O)CCCCCCCN(CCO)CCCCCCCC(=O)OC(CCCCCCCC)CCCCCCCC [Compound 18, Heptadecan-9-yl 8-((2-hydroxyethyl)(8-(nonyloxy)-8-oxooctyl)amino)octanoate]	–	97.34	–	–	–	–	–	–	354.3	1055	78.76	–	10.16	299.93	79.3
CCCCCCCCCCCOC(=O)CCCCCN(CCO)CCCCCCCC(=O)OC(CCCCCCCC)CCCCCCCC [Compound 25, Heptadecan-9-yl 8-((2-hydroxyethyl)(6-oxo-6-(undecyloxy)hexyl)amino)octanoate]	–	–	–	52	124.5	15924	2122	1998	–	–	233.45	1194.13	–	–	–
